Measured values as given in the kinase profiling compilation of Christmann-Franck et al. (2016).

What was measured:
Test in all cases: KINOMEscan competition binding
Details in all cases: compound 10.0 µM
NEK6 (human) = NEK6 (human) (UniProt Q9HC98)
EPHA3 (human) = EPHA3 (human) (UniProt P29320)
CLK3 (human) = CLK3 (human) (UniProt P49761)
RPS6KA1 KD1 (human) = RPS6KA1 KD1 (human) (UniProt Q15418)
MARK2 (human) = MARK2 (human) (UniProt Q7KZI7)
CDK9 (human) = CDK9 (human) (UniProt P50750)
GSK3A (human) = GSK3A (human) (UniProt P49840)
SRPK2 (human) = SRPK2 (human) (UniProt P78362)
STK38L (human) = STK38L (human) (UniProt Q9Y2H1)
TGFBR2 (human) = TGFBR2 (human) (UniProt P37173)
STK16 (human) = STK16 (human) (UniProt O75716)
Chain of STK16 (human) (O75716 whole entry, looked up): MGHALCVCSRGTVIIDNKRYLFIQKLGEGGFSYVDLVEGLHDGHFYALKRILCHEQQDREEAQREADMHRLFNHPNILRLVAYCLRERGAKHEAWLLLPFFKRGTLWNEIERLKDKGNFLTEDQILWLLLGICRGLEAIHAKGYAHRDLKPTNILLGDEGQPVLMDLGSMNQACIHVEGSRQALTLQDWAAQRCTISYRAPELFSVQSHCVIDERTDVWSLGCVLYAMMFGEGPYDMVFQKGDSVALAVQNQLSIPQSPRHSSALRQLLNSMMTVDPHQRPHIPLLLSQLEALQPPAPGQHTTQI

MYO3A (human) = MYO3A (human) (UniProt Q8NEV4)
NEK9 (human) = NEK9 (human) (UniProt Q8TD19)
CSNK1A1L (human) = CSNK1A1L (human) (UniProt Q8N752)
MAP4K2 (human) = MAP4K2 (human) (UniProt Q12851)
ROS1 (human) = ROS1 (human) (UniProt P08922)
SYK (human) = SYK (human) (UniProt P43405)
[1] = target: JAK3 JH1 catalytic (human) (UniProt P52333)
PRKX (human) = PRKX (human) (UniProt P51817)
ALK (human) = ALK (human) (UniProt Q9UM73)
PRKAA1 (human) = PRKAA1 (human) (UniProt Q13131)
STK25 (human) = STK25 (human) (UniProt O00506)
CAMKK1 (human) = CAMKK1 (human) (UniProt Q8N5S9)
[2] = target: JAK1 JH2 pseudokinase (human) (UniProt P23458)
AXL (human) = AXL (human) (UniProt P30530)
Chain of AXL (human) (P30530 whole entry, looked up): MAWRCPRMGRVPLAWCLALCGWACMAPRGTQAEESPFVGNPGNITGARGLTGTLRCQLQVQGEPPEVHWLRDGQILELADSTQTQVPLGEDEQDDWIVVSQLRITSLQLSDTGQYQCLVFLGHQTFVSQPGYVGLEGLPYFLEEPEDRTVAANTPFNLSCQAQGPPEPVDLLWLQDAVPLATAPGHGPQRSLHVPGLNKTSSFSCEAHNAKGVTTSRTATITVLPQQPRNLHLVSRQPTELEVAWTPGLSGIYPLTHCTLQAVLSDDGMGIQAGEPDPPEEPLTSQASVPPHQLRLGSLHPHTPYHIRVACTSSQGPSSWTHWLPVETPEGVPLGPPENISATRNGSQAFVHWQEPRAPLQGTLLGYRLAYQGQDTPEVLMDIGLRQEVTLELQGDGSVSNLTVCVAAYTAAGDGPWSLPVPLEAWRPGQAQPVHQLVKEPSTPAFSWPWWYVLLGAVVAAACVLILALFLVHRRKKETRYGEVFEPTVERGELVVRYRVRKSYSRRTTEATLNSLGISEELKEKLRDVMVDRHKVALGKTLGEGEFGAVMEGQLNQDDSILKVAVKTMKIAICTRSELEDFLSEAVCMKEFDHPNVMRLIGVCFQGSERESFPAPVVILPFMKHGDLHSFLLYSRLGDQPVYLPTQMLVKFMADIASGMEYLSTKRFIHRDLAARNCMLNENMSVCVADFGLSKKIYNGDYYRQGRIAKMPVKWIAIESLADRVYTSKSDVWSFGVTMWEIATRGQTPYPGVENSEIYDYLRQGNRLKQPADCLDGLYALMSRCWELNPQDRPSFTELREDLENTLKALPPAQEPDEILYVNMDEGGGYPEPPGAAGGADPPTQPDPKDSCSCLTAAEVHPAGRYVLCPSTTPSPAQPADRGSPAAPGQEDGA

INSRR (human) = INSRR (human) (UniProt P14616)
CDC42BPA (human) = CDC42BPA (human) (UniProt Q5VT25)
CAMK2D (human) = CAMK2D (human) (UniProt Q13557)
Chain of CAMK2D (human) (Q13557 whole entry, looked up): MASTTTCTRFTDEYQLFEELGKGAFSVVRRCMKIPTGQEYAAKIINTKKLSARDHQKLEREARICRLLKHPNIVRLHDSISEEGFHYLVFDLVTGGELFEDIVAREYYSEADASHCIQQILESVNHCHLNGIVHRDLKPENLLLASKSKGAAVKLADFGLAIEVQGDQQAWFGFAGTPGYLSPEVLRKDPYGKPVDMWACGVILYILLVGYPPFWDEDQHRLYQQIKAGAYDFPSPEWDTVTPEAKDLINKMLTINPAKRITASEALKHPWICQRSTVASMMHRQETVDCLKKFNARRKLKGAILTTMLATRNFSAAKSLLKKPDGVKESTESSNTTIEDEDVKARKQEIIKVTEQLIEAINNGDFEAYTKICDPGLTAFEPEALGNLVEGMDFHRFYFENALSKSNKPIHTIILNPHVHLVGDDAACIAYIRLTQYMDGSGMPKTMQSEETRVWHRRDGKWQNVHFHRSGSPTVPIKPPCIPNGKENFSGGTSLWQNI

CDK16 (human) = CDK16 (human) (UniProt Q00536)
ZAP70 (human) = ZAP70 (human) (UniProt P43403)
Chain of ZAP70 (human) (P43403 whole entry, looked up): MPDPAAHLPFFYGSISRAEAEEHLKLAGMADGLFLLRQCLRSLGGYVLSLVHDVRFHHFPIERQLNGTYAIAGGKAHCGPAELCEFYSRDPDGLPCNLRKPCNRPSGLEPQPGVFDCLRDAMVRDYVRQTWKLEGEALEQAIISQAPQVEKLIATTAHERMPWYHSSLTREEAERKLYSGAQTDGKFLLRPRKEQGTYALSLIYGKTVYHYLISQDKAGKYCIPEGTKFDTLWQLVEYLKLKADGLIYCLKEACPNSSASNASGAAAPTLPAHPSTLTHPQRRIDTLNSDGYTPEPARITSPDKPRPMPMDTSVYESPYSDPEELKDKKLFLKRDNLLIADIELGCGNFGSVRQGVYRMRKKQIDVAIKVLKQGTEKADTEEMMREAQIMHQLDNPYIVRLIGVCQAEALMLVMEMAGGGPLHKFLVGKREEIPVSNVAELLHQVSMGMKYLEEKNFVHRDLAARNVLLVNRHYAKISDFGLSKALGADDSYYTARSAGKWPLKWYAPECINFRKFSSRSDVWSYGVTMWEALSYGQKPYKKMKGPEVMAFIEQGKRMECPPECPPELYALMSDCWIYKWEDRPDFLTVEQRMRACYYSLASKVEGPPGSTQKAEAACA

CLK1 (human) = CLK1 (human) (UniProt P49759)
MAPK3 (human) = MAPK3 (human) (UniProt P27361)
Chain of MAPK3 (human) (P27361 whole entry, looked up): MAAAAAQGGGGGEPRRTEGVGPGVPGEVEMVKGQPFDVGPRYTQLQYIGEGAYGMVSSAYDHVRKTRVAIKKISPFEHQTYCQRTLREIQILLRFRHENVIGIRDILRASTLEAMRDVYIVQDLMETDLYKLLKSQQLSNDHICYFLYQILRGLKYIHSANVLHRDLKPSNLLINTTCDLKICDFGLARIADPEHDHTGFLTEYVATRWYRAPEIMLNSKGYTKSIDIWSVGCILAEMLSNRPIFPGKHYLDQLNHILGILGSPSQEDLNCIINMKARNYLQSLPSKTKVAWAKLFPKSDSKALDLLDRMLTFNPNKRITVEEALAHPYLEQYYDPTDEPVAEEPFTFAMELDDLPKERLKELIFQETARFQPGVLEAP

MARK4 (human) = MARK4 (human) (UniProt Q96L34)
MARK1 (human) = MARK1 (human) (UniProt Q9P0L2)
SIK2 (human) = SIK2 (human) (UniProt Q9H0K1)
MST1R (human) = MST1R (human) (UniProt Q04912)
SLK (human) = SLK (human) (UniProt Q9H2G2)
IKBKE (human) = IKBKE (human) (UniProt Q14164)
Chain of IKBKE (human) (Q14164 whole entry, looked up): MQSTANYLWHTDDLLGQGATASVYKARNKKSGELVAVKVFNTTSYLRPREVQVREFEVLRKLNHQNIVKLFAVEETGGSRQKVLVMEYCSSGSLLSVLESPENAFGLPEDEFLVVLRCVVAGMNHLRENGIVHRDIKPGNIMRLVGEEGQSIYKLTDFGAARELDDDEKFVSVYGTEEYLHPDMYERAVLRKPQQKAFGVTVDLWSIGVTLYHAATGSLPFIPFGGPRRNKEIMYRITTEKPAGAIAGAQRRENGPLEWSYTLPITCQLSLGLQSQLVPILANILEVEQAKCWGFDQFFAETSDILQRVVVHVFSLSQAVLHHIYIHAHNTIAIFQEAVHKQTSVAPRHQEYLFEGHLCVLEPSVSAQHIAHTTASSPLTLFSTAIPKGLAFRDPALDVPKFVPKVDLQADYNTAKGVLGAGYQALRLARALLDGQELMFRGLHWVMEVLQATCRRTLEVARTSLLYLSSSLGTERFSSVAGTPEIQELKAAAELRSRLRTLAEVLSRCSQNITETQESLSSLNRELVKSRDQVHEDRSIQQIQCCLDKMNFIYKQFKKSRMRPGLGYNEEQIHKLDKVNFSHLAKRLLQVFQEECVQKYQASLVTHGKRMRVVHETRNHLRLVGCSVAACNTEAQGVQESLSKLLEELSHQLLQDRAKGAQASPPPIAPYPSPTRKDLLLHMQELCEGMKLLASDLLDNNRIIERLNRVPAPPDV

PRKACB (human) = PRKACB (human) (UniProt P22694)
LATS2 (human) = LATS2 (human) (UniProt Q9NRM7)

Chain of CLK3 (human) (P49761 whole entry, looked up): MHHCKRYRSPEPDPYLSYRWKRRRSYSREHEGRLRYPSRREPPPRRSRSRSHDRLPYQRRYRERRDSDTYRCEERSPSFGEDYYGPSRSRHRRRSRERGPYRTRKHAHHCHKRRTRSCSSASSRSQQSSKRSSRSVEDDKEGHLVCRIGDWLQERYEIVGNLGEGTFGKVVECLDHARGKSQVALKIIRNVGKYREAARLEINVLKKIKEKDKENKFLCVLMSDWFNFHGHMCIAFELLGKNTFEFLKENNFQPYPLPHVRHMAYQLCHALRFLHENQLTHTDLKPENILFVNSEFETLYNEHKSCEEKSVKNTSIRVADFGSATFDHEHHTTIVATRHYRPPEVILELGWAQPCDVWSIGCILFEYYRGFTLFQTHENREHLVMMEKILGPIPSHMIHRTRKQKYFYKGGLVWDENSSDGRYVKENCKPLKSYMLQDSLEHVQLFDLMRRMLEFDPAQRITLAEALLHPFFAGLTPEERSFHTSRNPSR
Chain of EPHA3 (human) (P29320 whole entry, looked up): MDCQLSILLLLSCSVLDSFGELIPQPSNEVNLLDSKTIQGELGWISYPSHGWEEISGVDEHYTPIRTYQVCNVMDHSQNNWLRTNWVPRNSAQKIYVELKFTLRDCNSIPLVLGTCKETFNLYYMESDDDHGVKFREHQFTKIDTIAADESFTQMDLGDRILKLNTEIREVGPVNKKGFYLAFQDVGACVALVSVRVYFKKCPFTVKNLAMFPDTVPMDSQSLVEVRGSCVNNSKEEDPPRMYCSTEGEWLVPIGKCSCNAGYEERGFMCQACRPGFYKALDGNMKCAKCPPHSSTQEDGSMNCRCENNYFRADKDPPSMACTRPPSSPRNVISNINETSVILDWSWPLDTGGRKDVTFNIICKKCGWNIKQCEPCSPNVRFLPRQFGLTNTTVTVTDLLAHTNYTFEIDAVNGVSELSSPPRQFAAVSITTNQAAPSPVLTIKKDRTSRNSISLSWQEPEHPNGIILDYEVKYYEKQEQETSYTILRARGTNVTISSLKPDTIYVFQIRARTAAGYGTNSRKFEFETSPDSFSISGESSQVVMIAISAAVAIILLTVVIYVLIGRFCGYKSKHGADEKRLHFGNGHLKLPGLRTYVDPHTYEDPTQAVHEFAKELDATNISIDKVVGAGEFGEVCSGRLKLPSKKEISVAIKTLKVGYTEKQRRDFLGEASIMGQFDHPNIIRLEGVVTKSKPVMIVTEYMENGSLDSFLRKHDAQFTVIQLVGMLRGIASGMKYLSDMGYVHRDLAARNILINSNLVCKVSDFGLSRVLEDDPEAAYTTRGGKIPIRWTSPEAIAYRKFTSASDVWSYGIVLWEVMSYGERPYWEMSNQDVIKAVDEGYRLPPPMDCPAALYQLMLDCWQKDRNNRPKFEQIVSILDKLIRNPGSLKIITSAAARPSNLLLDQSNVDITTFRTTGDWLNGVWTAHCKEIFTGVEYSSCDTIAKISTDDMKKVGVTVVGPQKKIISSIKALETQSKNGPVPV

SMILES | kinase still bound, per cent of control (NEK6 (human)) [%] | kinase still bound, per cent of control (EPHA3 (human)) [%] | kinase still bound, per cent of control (CLK3 (human)) [%] | kinase still bound, per cent of control (RPS6KA1 KD1 (human)) [%] | kinase still bound, per cent of control (CDK9 (human)) [%] | kinase still bound, per cent of control (GSK3A (human)) [%] | kinase still bound, per cent of control (SRPK2 (human)) [%] | kinase still bound, per cent of control (STK38L (human)) [%] | kinase still bound, per cent of control (TGFBR2 (human)) [%] | kinase still bound, per cent of control (STK16 (human)) [%] | kinase still bound, per cent of control (MYO3A (human)) [%] | kinase still bound, per cent of control (NEK9 (human)) [%] | kinase still bound, per cent of control (CSNK1A1L (human)) [%] | kinase still bound, per cent of control (MAP4K2 (human)) [%] | kinase still bound, per cent of control (ROS1 (human)) [%] | kinase still bound, per cent of control (SYK (human)) [%] | kinase still bound, per cent of control [1] [%] | kinase still bound, per cent of control (PRKX (human)) [%] | kinase still bound, per cent of control (ALK (human)) [%] | kinase still bound, per cent of control (PRKAA1 (human)) [%] | further results
O=C1Nc2ccc(I)cc2/C1=C/c1cc(Br)c(O)c(Br)c1 | 96 | 66 | 84 | 42 | 93 | 100 | 87 | 31 | 56 | 90 | 2.5 | 100 | 100 | 68 | 99 | 78 | 14 | 100 | 100 | 100 | kinase still bound, per cent of control (MARK2 (human)): 44%; kinase still bound, per cent of control (STK25 (human)): 100%; kinase still bound, per cent of control (CAMKK1 (human)): 7.6%; kinase still bound, per cent of control [2]: 0.55%; kinase still bound, per cent of control (AXL (human)): 100%; kinase still bound, per cent of control (INSRR (human)): 81%; kinase still bound, per cent of control (CDC42BPA (human)): 100%; kinase still bound, per cent of control (CAMK2D (human)): 41%; kinase still bound, per cent of control (CDK16 (human)): 89%; kinase still bound, per cent of control (ZAP70 (human)): 84%; kinase still bound, per cent of control (CLK1 (human)): 34%; kinase still bound, per cent of control (MAPK3 (human)): 100%; kinase still bound, per cent of control (MARK4 (human)): 100%; kinase still bound, per cent of control (MARK1 (human)): 99%; kinase still bound, per cent of control (SIK2 (human)): 84%; kinase still bound, per cent of control (MST1R (human)): 100%; kinase still bound, per cent of control (SLK (human)): 100%; kinase still bound, per cent of control (IKBKE (human)): 86%; kinase still bound, per cent of control (PRKACB (human)): 100%; kinase still bound, per cent of control (LATS2 (human)): 81%
CCC(=O)N1CCN(c2ccc(-n3c(=O)ccc4cnc5ccc(-c6cnc7ccccc7c6)cc5c43)cc2C(F)(F)F)CC1 | 99 | 70 | 43 | 68 | 94 | 93 | 100 | 94 | 77 | 18 | 100 | 100 | 81 | 35 | 71 | 78 | 100 | 83 | 80 | 91 | kinase still bound, per cent of control (STK25 (human)): 84%; kinase still bound, per cent of control (CAMKK1 (human)): 80%; kinase still bound, per cent of control [2]: 76%; kinase still bound, per cent of control (AXL (human)): 46%; kinase still bound, per cent of control (INSRR (human)): 100%; kinase still bound, per cent of control (CDC42BPA (human)): 0.65%; kinase still bound, per cent of control (CAMK2D (human)): 72%; kinase still bound, per cent of control (CDK16 (human)): 91%; kinase still bound, per cent of control (ZAP70 (human)): 100%; kinase still bound, per cent of control (CLK1 (human)): 49%; kinase still bound, per cent of control (MAPK3 (human)): 91%; kinase still bound, per cent of control (MARK4 (human)): 100%; kinase still bound, per cent of control (MARK1 (human)): 100%; kinase still bound, per cent of control (SIK2 (human)): 23%; kinase still bound, per cent of control (MST1R (human)): 55%; kinase still bound, per cent of control (SLK (human)): 94%; kinase still bound, per cent of control (IKBKE (human)): 87%; kinase still bound, per cent of control (PRKACB (human)): 100%; kinase still bound, per cent of control (LATS2 (human)): 100%
Cc1cc([C@@H](C)Nc2ccccc2C(=O)O)c2nc(N3CCOCC3)cc(=O)n2c1 | 100 | 79 | 100 | 73 | 100 | 100 | 85 | 94 | 95 | 77 | 97 | 100 | 100 | 56 | 100 | 100 | 94 | 91 | 100 | 100 | kinase still bound, per cent of control (MARK2 (human)): 90%; kinase still bound, per cent of control (STK25 (human)): 76%; kinase still bound, per cent of control (CAMKK1 (human)): 98%; kinase still bound, per cent of control [2]: 100%; kinase still bound, per cent of control (AXL (human)): 86%; kinase still bound, per cent of control (INSRR (human)): 100%; kinase still bound, per cent of control (CDC42BPA (human)): 96%; kinase still bound, per cent of control (CAMK2D (human)): 95%; kinase still bound, per cent of control (CDK16 (human)): 100%; kinase still bound, per cent of control (ZAP70 (human)): 100%; kinase still bound, per cent of control (CLK1 (human)): 74%; kinase still bound, per cent of control (MAPK3 (human)): 95%; kinase still bound, per cent of control (MARK4 (human)): 100%; kinase still bound, per cent of control (MARK1 (human)): 100%; kinase still bound, per cent of control (SIK2 (human)): 100%; kinase still bound, per cent of control (SLK (human)): 100%; kinase still bound, per cent of control (IKBKE (human)): 85%; kinase still bound, per cent of control (PRKACB (human)): 100%; kinase still bound, per cent of control (LATS2 (human)): 63%
